Test results from US20260184663A1, “INDENE COMPOUNDS, PHARMACEUTICAL COMPOSITIONS THEREOF, AND THEIR THERAPEUTIC APPLICATIONS” (NucMito Pharmaceuticals co. Ltd., priority 2022, published 2026).

Tests used:
Assay type in all cases: cell-based
[1] = test system: A549 (lung adenocarcinoma); experiment: Antiproliferative activity (CCK-8 cell viability), A549; details: Homo sapiens, 72 h; for inhibition at 3.3 µM: Compound concentration: 3.3 μM; for inhibition at 3.3 µM / inhibition at 10 µM: read-out: Antiproliferative activity in cancerous cells, A549 (inhibition of cell growth); for inhibition at 10 µM: Compound concentration: 10 μM
Procedure, shortened: (§1)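 Cells grown in DMEM (HepG2, SW480), MEM (HeLa) or F-12K (A549), each with 10% FBS, then exposed to compound at 3.3, 10 or 30 μM for 72 h at 37 °C. CCK-8 absorbance at 450 nm; viability expressed as percent of DMSO-treated cells, graded as growth inhibition bands.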

[2] = test system: A431 (epidermoid carcinoma); experiment: Antiproliferative activity (CCK-8 cell viability), A431; details: Homo sapiens, 72 h; for inhibition at 3.3 µM: A-431, Compound concentration: 3.3 μM; for inhibition at 3.3 µM / inhibition at 10 µM: read-out: Antiproliferative activity in cancerous cells, A431 (inhibition of cell growth); for inhibition at 10 µM: A-431, Compound concentration: 10 μM
Procedure, shortened: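 A431 epidermoid carcinoma cells grown in DMEM with 10% FBS were plated at 2,000-5,000 cells/well in 96-well plates. After attachment they were exposed to compound at 3.3 μM, 10 μM, or 30 μM for 72 h at 37° C. Viability was then assessed by CCK-8 against DMSO vehicle-treated wells.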

[3] = test system: MDA-MB-231 (breast cancer); experiment: Antiproliferative activity (CCK-8 cell viability), MDA-MB-231; details: Homo sapiens, 72 h; for inhibition at 3.3 µM: Compound concentration: 3.3 μM; for inhibition at 3.3 µM / inhibition at 10 µM: read-out: Antiproliferative activity in cancerous cells, MDA-MB-231 (inhibition of cell growth); for inhibition at 10 µM: Compound concentration: 10 μM
Procedure, shortened: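 MDA-MB-231 breast cancer cells, grown in DMEM with 10% FBS, were plated in 96-well plates at 2,000-5,000 cells/well. Once attached, they were exposed to compound and incubated at 37° C. for 72 h. Viability was then measured with CCK-8 (10 μL per well, 4 h at 37° C.) by absorbance at 450 nm, relative to DMSO vehicle wells.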

[4] = test system: B16F10 (malignant melanoma); experiment: Antiproliferative activity (CCK-8 cell viability), B16F10; details: Mus musculus, 72 h, read-out: Antiproliferative activity in cancerous cells, B16F10 (inhibition of cell growth); for inhibition at 3.3 µM: B16-F10, Compound concentration: 3.3 μM; for inhibition at 10 µM: B16-F10, Compound concentration: 10 μM
Procedure, shortened: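 B16F10 melanoma cells grown in DMEM with 10% FBS were plated in 96-well plates at 2,000-5,000 cells/well. After attachment they were exposed to compound in medium for 72 h at 37° C. CCK-8 solution (10 μL) was then added, and after 4 h at 37° C absorbance was read at 450 nm.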

HepG2 (liver cancer) = experiment: Antiproliferative activity (CCK-8 cell viability), HepG2; details: Homo sapiens, 72 h, read-out: Antiproliferative activity in cancerous cells, HepG2 (inhibition of cell growth); for inhibition at 3.3 µM: Compound concentration: 3.3 μM; for inhibition at 10 µM: Compound concentration: 10 μM
Procedure, shortened: as §1

HeLa (cervical cancer) = experiment: Antiproliferative activity (CCK-8 cell viability), HeLa; details: Homo sapiens, 72 h, read-out: Antiproliferative activity in cancerous cells, HELA (inhibition of cell growth); for inhibition at 3.3 µM: Compound concentration: 3.3 μM; for inhibition at 10 µM: Compound concentration: 10 μM
Procedure, shortened: as §1

SW480 (colon cancer) = experiment: Antiproliferative activity (CCK-8 cell viability), SW480; details: Homo sapiens, 72 h, read-out: Antiproliferative activity in cancerous cells, SW480 (inhibition of cell growth); for inhibition at 3.3 µM: Compound concentration: 3.3 μM; for inhibition at 10 µM: Compound concentration: 10 μM
Procedure, shortened: as §1

Compound | inhibition at 3.3 µM [1] [%] | inhibition at 10 µM [1] [%] | inhibition at 3.3 µM [2] [%] | inhibition at 10 µM [2] [%] | inhibition at 30 µM ([2]; A-431, Compound concentration: 30 μM, read-out: Antiproliferative activity in cancerous cells, A431) [%] | inhibition at 3.3 µM [3] [%] | inhibition at 10 µM [3] [%] | inhibition at 3.3 µM [4] [%] | inhibition at 10 µM [4] [%] | inhibition at 3.3 µM (HepG2 (liver cancer)) [%] | inhibition at 10 µM (HepG2 (liver cancer)) [%] | inhibition at 3.3 µM (HeLa (cervical cancer)) [%] | inhibition at 10 µM (HeLa (cervical cancer)) [%] | inhibition at 3.3 µM (SW480 (colon cancer)) [%] | inhibition at 10 µM (SW480 (colon cancer)) [%] | inhibition at 30 µM ([3]; Compound concentration: 30 μM, read-out: Antiproliferative activity in cancerous cells, MDA-MB-231) [%] | inhibition at 30 µM ([1]; Compound concentration: 30 μM, read-out: Antiproliferative activity in cancerous cells, A549) [%]
CC1=C(CC(=O)O)c2cc(F)ccc2/C1=C\c1ccc([S+]([O-])c2ccc(F)cc2)cc1 (centres unmarked) [C45, (Z)-2-(5-Fluoro-1-(4-((4-fluorophenyl)sulfinyl)benzylidene)-2-methyl-1H-inden-3-yl)acetic acid] | < 30 | 30 to 50 | < 30 | < 30 | < 30 | 30 to 50 | ≥ 50 | ≥ 50 | ≥ 50 | < 30 | < 30 | < 30 | ≥ 50 | < 30 | 30 to 50 |  | 
CC1=C(CC(=O)O)c2cc(F)ccc2/C1=C\c1ccc(Sc2ccc(F)cc2)cc1 [C47, (Z)-2-(5-Fluoro-1-(4-((4-fluorophenyl)thio)benzylidene)-2-methyl-1H-inden-3-yl)acetic acid] | < 30 | ≥ 50 | 30 to 50 | ≥ 50 |  | < 30 | < 30 | < 30 | ≥ 50 | < 30 | ≥ 50 | < 30 | ≥ 50 | < 30 | ≥ 50 | < 30 | 
CC1=C(CC(=O)O)c2cc(F)ccc2/C1=C\c1ccc(Oc2ccc(Cl)c(Cl)c2)cc1 [C49, (Z)-2-(1-(4-(3,4-Dichlorophenoxy)benzylidene)-5-fluoro-2-methyl-1H-inden-3-yl)acetic acid] | < 30 | ≥ 50 | ≥ 50 | ≥ 50 |  | < 30 | ≥ 50 | < 30 | ≥ 50 | < 30 | ≥ 50 | ≥ 50 | ≥ 50 | 30 to 50 | ≥ 50 |  | 
CC1=C(CC(=O)O)c2cc(F)ccc2/C1=C\c1ccc(Oc2ccc(F)cc2)cc1Cl [C50, (Z)-2-(1-(2-Chloro-4-(4-fluorophenoxy)benzylidene)-5-fluoro-2-methyl-1H-inden-3-yl)acetic acid] | < 30 | ≥ 50 | ≥ 50 | ≥ 50 |  | < 30 | ≥ 50 | < 30 | ≥ 50 | < 30 | ≥ 50 | 30 to 50 | ≥ 50 | 30 to 50 | ≥ 50 |  | 
COc1cc(Oc2ccc(F)cc2)ccc1/C=C1/C(C)=C(CC(=O)O)c2cc(F)ccc21 [C51, (Z)-2-(5-Fluoro-1-(4-(4-fluorophenoxy)-2-methoxybenzylidene)-2-methyl-1H-inden-3-yl)acetic acid] | 30 to 50 | 30 to 50 | ≥ 50 | ≥ 50 |  | 30 to 50 | ≥ 50 | ≥ 50 | ≥ 50 | < 30 | ≥ 50 | 30 to 50 | ≥ 50 | 30 to 50 | ≥ 50 |  | 
CC1=C(CC(=O)O)c2cc(F)ccc2/C1=C\c1ccc(Oc2ccc(Cl)cc2F)cc1 [C52, (Z)-2-(1-(4-(4-Chloro-2-fluorophenoxy)benzylidene)-5-fluoro-2-methyl-1H-inden-3-yl)acetic acid] | 30 to 50 | ≥ 50 | ≥ 50 | ≥ 50 |  | 30 to 50 | ≥ 50 | ≥ 50 | ≥ 50 | < 30 | ≥ 50 | 30 to 50 | ≥ 50 | < 30 | ≥ 50 |  | 
CC1=C(CC(=O)O)c2cc(F)ccc2/C1=C\c1ccc(Oc2ccc(F)c(Br)c2)cc1 [C53, (Z)-2-(1-(4-(3-Bromo-4-fluorophenoxy)benzylidene)-5-fluoro-2-methyl-1H-inden-3-yl)acetic acid] | < 30 | 30 to 50 | ≥ 50 | ≥ 50 |  | ≥ 50 | ≥ 50 | < 30 | ≥ 50 | < 30 | ≥ 50 | < 30 | ≥ 50 | < 30 | ≥ 50 |  | 
CC1=C(CC(=O)O)c2cc(F)ccc2/C1=C\c1ccc(Oc2ccc(F)c(Cl)c2)cc1 [C54, (Z)-2-(1-(4-(3-Chloro-4-fluorophenoxy)benzylidene)-5-fluoro-2-methyl-1H-inden-3-yl)acetic acid] | < 30 | < 30 | ≥ 50 | ≥ 50 |  | < 30 | ≥ 50 | ≥ 50 | ≥ 50 | < 30 | 30 to 50 | < 30 | ≥ 50 | < 30 | ≥ 50 |  | < 30
CC1=C(CC(=O)O)c2cc(F)ccc2/C1=C\c1ccc(Oc2ccc(Cl)cc2C)cc1 [C55, (Z)-2-(1-(4-(4-Chloro-2-methylphenoxy)benzylidene)-5-fluoro-2-methyl-1H-inden-3-yl)acetic acid] | < 30 | < 30 | 30 to 50 | ≥ 50 |  | < 30 | ≥ 50 | ≥ 50 | ≥ 50 | < 30 | ≥ 50 | ≥ 50 | ≥ 50 | < 30 | ≥ 50 |  | 
CC1=C(CC(=O)O)c2cc(F)ccc2/C1=C\c1ccc(Oc2ccc(Cl)c(F)c2)cc1 [C56, (Z)-2-(1-(4-(4-Chloro-3-fluorophenoxy)benzylidene)-5-fluoro-2-methyl-1H-inden-3-yl)acetic acid] | < 30 | < 30 | ≥ 50 | ≥ 50 |  | ≥ 50 | ≥ 50 | ≥ 50 | ≥ 50 | < 30 | < 30 | ≥ 50 | ≥ 50 | < 30 | ≥ 50 |  | 
